Assay results as given in US20170189363A1, “GASTRIC ACID MODULATORS FOR ORAL DELIVERY OF PEPTIDES AND PROTEINS” (NOVEN PHARMACEUTICALS, INC., priority 2015, published 2017).

Tests used:
Assay type in all cases: in vivo
[1] = Blood glucose after oral capsules of insulin/SNAC/ranitidine hydrochloride; conditions: rats
Method: Rats were orally administered capsules comprising 0.3 mg insulin/10 mg SNAC/10 mg ranitidine hydrochloride, and blood glucose levels were measured at periodic intervals. Results are shown in FIG. 2A (each line represents one treated animal). For comparison, rats were orally administered capsules comprising 0.3 mg insulin/10 mg SNAC (i.e., without ranitidine hydrochloride), and blood glucose levels were assessed. Results are shown in FIG. 2B (each line represents one treated animal).

[2] = Blood glucose after capsule-in-capsule insulin/SNAC with ranitidine hydrochloride; conditions: dogs
Method: In particular, a size 0 capsule containing insulin and SNAC was placed inside an empty size 00 capsule, which was placed inside a size 000 capsule, optionally containing ranitidine hydrochloride. The capsules were administered to dogs and blood glucose levels were assessed. Results are shown in FIG. 3 (♦—with ranitidine hydrochloride; ▪—without ranitidine hydrochloride).

[3] = Blood glucose after intravenous ranitidine hydrochloride plus oral insulin/SNAC capsules; conditions: rats
Method: Rats were administered ranitidine hydrochloride (10 mg/kg) intravenously one hour prior to oral dosing with capsules comprising 0.3 mg insulin/20 mg SNAC. In vivo delivery of insulin was measured indirectly by assessing blood glucose levels at periodic intervals using a glucometer. Results are shown in FIG. 1A (each line represents one treated animal). For comparison, rats were orally administered capsules comprising 0.3 mg insulin/20 mg SNAC without administration of ranitidine hydrochloride, and blood glucose levels were assessed. Results are shown in FIG. 1B (each line represents one treated animal).

insulin
greater: bioavailability of insulin ([1]; oral capsules with 10 mg ranitidine hydrochloride vs without, inferred from blood glucose) | bioavailability of insulin ([2]; capsule-in-capsule with 150 mg ranitidine hydrochloride vs without, inferred from blood glucose) | bioavailability of insulin ([3]; oral capsules 0.3 mg insulin/20 mg SNAC with i.v. ranitidine hydrochloride vs without, inferred from blood glucose)
lower: blood glucose levels ([1]; oral capsules 0.3 mg insulin/10 mg SNAC/10 mg ranitidine hydrochloride compared with 0.3 mg insulin/10 mg SNAC, FIG. 2A vs 2B) | blood glucose levels ([2]; capsule-in-capsule 3.6 mg insulin and 500 mg SNAC inner, 150 mg ranitidine hydrochloride outer, compared with no ranitidine hydrochloride, FIG. 3) | blood glucose levels ([3]; oral capsules 0.3 mg insulin/20 mg SNAC, ranitidine hydrochloride 10 mg/kg intravenously one hour prior, compared with no ranitidine hydrochloride, FIG. 1A vs 1B)
